Reference: ChEMBL document CHEMBL1201862, “PubChem BioAssay data set” (2004)
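Values below derive from 48-hour exposures of cells grown in 96-well plates, with endpoints linearly interpolated between the two concentrations bracketing the appropriate inhibition level. Here, GI50 denotes the concentration required for 50% inhibition of growth.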 Activity calls are given as the source filed them. Cut-off read from the data, not from the text of the source: active = GI50 up to about 1.1 µM and inactive = higher.

Tests used:
Assay in all cases: inhibition of tumour cell growth, NCI panel, 48 h
HCC 2998 = tested on: HCC 2998
SW-620 = tested on: SW-620
HL-60 = tested on: HL-60
UACC-257 = tested on: UACC-257
Malme-3M = tested on: Malme-3M
NCI-H23 = tested on: NCI-H23
M14 = tested on: M14
SK-MEL-5 = tested on: SK-MEL-5
MDA-MB-231 = tested on: MDA-MB-231
SF-268 = tested on: SF-268
HCT-116 = tested on: HCT-116
LOX IMVI = tested on: LOX IMVI
U-251 = tested on: U-251
SNB-19 = tested on: SNB-19
HOP-92 = tested on: HOP-92
OVCAR-5 = tested on: OVCAR-5
NCI-H226 = tested on: NCI-H226
OVCAR-4 = tested on: OVCAR-4

Measured: GI50

Cc1nn(C(=O)Cc2ccccc2)c2c1C(c1ccc([N+](=O)[O-])cc1)SC(=N)N2 (centres undefined)
inactive: HCC 2998 > 100 µM | SW-620 > 100 µM | HL-60 > 100 µM | UACC-257 > 100 µM | Malme-3M > 100 µM | NCI-H23 > 100 µM | M14 > 100 µM | SK-MEL-5 > 100 µM | MDA-MB-231 > 100 µM | SF-268 > 100 µM | HCT-116 > 100 µM | LOX IMVI > 100 µM

OC1(c2ccccc2)C2CC=CC2C1(c1ccccc1)c1ccccc1 (centres undefined)
inactive: HCC 2998 19.8 µM | SW-620 30.2 µM | HL-60 27.8 µM | U-251 32.5 µM | UACC-257 27 µM | Malme-3M 19.5 µM | NCI-H23 41.9 µM | SNB-19 51.3 µM | M14 32.7 µM | SK-MEL-5 17.2 µM | HOP-92 33.3 µM | MDA-MB-231 40.6 µM | OVCAR-5 60.8 µM | SF-268 31 µM | HCT-116 31.2 µM | LOX IMVI 18 µM

CN(C)CCNc1ccc([N+](=O)[O-])c2sc3ccccc3c(=O)c12
inactive: NCI-H226 6.11 µM | OVCAR-4 3.1 µM | HCC 2998 2.92 µM | SW-620 2.43 µM | HL-60 2.66 µM | U-251 3.48 µM | UACC-257 6.28 µM | Malme-3M 4.27 µM | NCI-H23 4.16 µM | SNB-19 5.14 µM | M14 6.71 µM | SK-MEL-5 8.63 µM | HOP-92 3.84 µM | MDA-MB-231 1.99 µM | OVCAR-5 3.03 µM | SF-268 4.21 µM | HCT-116 2.47 µM

S=c1nc(N2CCCCC2)c2cn[nH]c2[nH]1
inactive: NCI-H226 > 100 µM | OVCAR-4 93.5 µM | HCC 2998 44 µM | SW-620 57 µM | HL-60 19.6 µM | U-251 60.5 µM | UACC-257 98.9 µM | Malme-3M 64.9 µM | NCI-H23 40.4 µM | SNB-19 > 100 µM | M14 74 µM | SK-MEL-5 1.53 µM | MDA-MB-231 > 100 µM | OVCAR-5 > 100 µM | SF-268 78 µM | HCT-116 56.6 µM | LOX IMVI 39.4 µM

O=C1CC(c2ccccc2)Oc2ccccc21 (centres undefined) [FLAVANONE]
inactive: NCI-H226 32.4 µM | OVCAR-4 66.1 µM | HCC 2998 76.9 µM | SW-620 > 10 µM | HL-60 21.5 µM | U-251 38.6 µM | UACC-257 77.3 µM | NCI-H23 15.9 µM | SNB-19 23.1 µM | M14 51.9 µM | SK-MEL-5 25.1 µM | HOP-92 24.9 µM | MDA-MB-231 32.2 µM | SF-268 64.7 µM | HCT-116 30.3 µM | LOX IMVI 26.5 µM

COc1ccc2c(c1)C(=O)OCCC2
inactive: NCI-H226 > 100 µM | OVCAR-4 > 100 µM | HCC 2998 > 100 µM | SW-620 > 100 µM | HL-60 > 100 µM | U-251 > 100 µM | UACC-257 > 100 µM | NCI-H23 > 100 µM | SNB-19 > 100 µM | M14 > 100 µM | SK-MEL-5 > 100 µM | HOP-92 > 100 µM | MDA-MB-231 > 100 µM | OVCAR-5 > 100 µM | SF-268 > 100 µM | HCT-116 > 100 µM

COc1c(F)c(F)c(C(=O)/C=C2\Nc3ccccc3NC2=O)c(F)c1F
inactive: OVCAR-4 2.48 µM | HCC 2998 > 10 µM | SW-620 8.38 µM | HL-60 > 10 µM | UACC-257 > 10 µM | Malme-3M > 10 µM | NCI-H23 > 10 µM | M14 > 10 µM | SK-MEL-5 8.95 µM | HOP-92 > 10 µM | MDA-MB-231 > 10 µM | SF-268 9.1 µM | LOX IMVI 2.89 µM

COP(=O)(OC)C12CCOCCN1c1ccccc1C2=O (centres undefined)
inactive: NCI-H226 > 100 µM | OVCAR-4 > 100 µM | HCC 2998 > 100 µM | SW-620 > 100 µM | HL-60 > 100 µM | U-251 > 100 µM | UACC-257 > 100 µM | Malme-3M > 100 µM | NCI-H23 > 100 µM | SNB-19 > 100 µM | M14 > 100 µM | SK-MEL-5 > 100 µM | HOP-92 > 100 µM | MDA-MB-231 > 100 µM | OVCAR-5 > 100 µM | SF-268 > 100 µM | HCT-116 > 100 µM

COC(=O)C1=NN2c3ccccc3C(=O)OCCC2C1 (centres undefined)
inactive: NCI-H226 > 100 µM | OVCAR-4 > 100 µM | HCC 2998 > 100 µM | SW-620 > 100 µM | HL-60 > 100 µM | U-251 > 100 µM | UACC-257 > 100 µM | Malme-3M > 100 µM | NCI-H23 > 100 µM | SK-MEL-5 > 100 µM | HOP-92 46.5 µM | MDA-MB-231 > 100 µM | OVCAR-5 > 100 µM | SF-268 > 100 µM | HCT-116 > 100 µM | LOX IMVI > 100 µM

NC1CC(Cl)c2c(Cl)sc(Cl)c21 (centres undefined)
inactive: NCI-H226 > 100 µM | OVCAR-4 > 100 µM | HCC 2998 53.2 µM | SW-620 > 100 µM | HL-60 > 100 µM | U-251 > 100 µM | UACC-257 > 100 µM | Malme-3M > 100 µM | NCI-H23 > 100 µM | M14 > 100 µM | SK-MEL-5 > 100 µM | HOP-92 > 100 µM | MDA-MB-231 > 100 µM | OVCAR-5 > 100 µM | SF-268 > 100 µM | HCT-116 > 100 µM | LOX IMVI > 100 µM

OC(c1ccc(F)cc1)C(F)(F)c1nc2ccccc2o1 (centres undefined)
inactive: NCI-H226 > 100 µM | OVCAR-4 > 100 µM | HCC 2998 > 100 µM | SW-620 > 100 µM | HL-60 > 100 µM | U-251 > 100 µM | UACC-257 57.4 µM | NCI-H23 > 100 µM | SNB-19 > 100 µM | M14 > 100 µM | SK-MEL-5 50 µM | HOP-92 21.7 µM | MDA-MB-231 83.8 µM | SF-268 38.9 µM | HCT-116 > 100 µM | LOX IMVI > 100 µM

c1ccc(CN2CCC3(CC2)SSC2(CCN(Cc4ccccc4)CC2)S3)cc1
inactive: OVCAR-4 52.4 µM | HCC 2998 26.9 µM | SW-620 > 100 µM | HL-60 78 µM | U-251 > 100 µM | UACC-257 26.7 µM | Malme-3M 53.7 µM | NCI-H23 30.1 µM | M14 66.5 µM | HOP-92 > 100 µM | MDA-MB-231 > 100 µM | OVCAR-5 85.3 µM | HCT-116 50.8 µM | LOX IMVI 48.8 µM

CC(=O)Nc1cc(Cl)cc(Cl)c1O
inactive: NCI-H226 > 100 µM | OVCAR-4 > 100 µM | HCC 2998 > 100 µM | SW-620 > 100 µM | HL-60 > 100 µM | U-251 > 100 µM | UACC-257 > 100 µM | Malme-3M > 100 µM | NCI-H23 > 100 µM | SNB-19 > 100 µM | M14 > 100 µM | SK-MEL-5 > 100 µM | HOP-92 > 100 µM | MDA-MB-231 > 100 µM | OVCAR-5 > 100 µM | SF-268 > 100 µM | HCT-116 > 100 µM
